These results are taken from patent US12319655B2, “RAF kinase inhibitors and methods of use thereof” (Deciphera Pharmaceuticals, LLC, priority 2021, dated 2025).

pIC50: −log10 of the molar value. Read-outs that look alike come from different tables or passages of the source.

One experiment relates to A375 cells. In words: A375 Cell Proliferation Assay (1). The settings on record: Homo sapiens, A-375. The format is cell-based. The method, boiled down:
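Resazurin fluorescence (excitation 540 nm, emission 600 nm, after a further 5-6 h) gave IC50s from triplicate compound dilution series.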

The target in experiment [1] is B-Raf (V600E) (SEQ. ID NO: 4) kinase (Homo sapiens (Human), UniProt P15056, V600E). In words: Biochemical Assay for B-Raf (V600E) (1). The following applies: Table J, BRAF V600E. The method, boiled down:
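Coupled pyruvate kinase/lactate dehydrogenase assay: 0.03 nM B-Raf V600E, 30.1 nM MEK, 1 mM ATP, pH 7.5 Tris/MgCl2 buffer, 1% DMSO. NADH oxidation followed at 340 nm for 6 h at 30 °C; rate from 3–4 h converted to percent inhibition, IC50 by four-parameter fit.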

Experiment [2] addresses A-Raf kinase (SEQ. ID No: 1) (Homo sapiens (Human), UniProt P10398, Y301D/Y302D). Nature of the experiment: Biochemical Assay for A-Raf (1). The following applies: Table J. The method, boiled down:
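A-Raf Y301D/Y302D at 5.55 nM phosphorylates 30.1 nM MEK with 1 mM ATP in pH 7.5 Tris buffer, 1% DMSO. Activity was read continuously as NADH oxidation at 340 nm in a pyruvate kinase/lactate dehydrogenase coupled system for 6 h at 30 °C. Rates from 4–5 h were converted to percent inhibition, and IC50 came from a four-parameter fit.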

The test system of a further experiment is H2405 cells. In words: H2405 Cell Proliferation Assay (1). In kind it is cell-based. The settings on record: Homo sapiens, NCI-H2405. The method, boiled down: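 Viability was read by resazurin reduction (ex 540 nm, em 600 nm; 5-6 h with 40 μL of 440 μM stock) after 67-72 h compound exposure at 37 °C.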

A-Raf kinase (SEQ. ID No: 1), sequence (P10398 other isoform, or with tags, fused parts or gaps Y301D (already in the parent)/Y302D (already in the parent)): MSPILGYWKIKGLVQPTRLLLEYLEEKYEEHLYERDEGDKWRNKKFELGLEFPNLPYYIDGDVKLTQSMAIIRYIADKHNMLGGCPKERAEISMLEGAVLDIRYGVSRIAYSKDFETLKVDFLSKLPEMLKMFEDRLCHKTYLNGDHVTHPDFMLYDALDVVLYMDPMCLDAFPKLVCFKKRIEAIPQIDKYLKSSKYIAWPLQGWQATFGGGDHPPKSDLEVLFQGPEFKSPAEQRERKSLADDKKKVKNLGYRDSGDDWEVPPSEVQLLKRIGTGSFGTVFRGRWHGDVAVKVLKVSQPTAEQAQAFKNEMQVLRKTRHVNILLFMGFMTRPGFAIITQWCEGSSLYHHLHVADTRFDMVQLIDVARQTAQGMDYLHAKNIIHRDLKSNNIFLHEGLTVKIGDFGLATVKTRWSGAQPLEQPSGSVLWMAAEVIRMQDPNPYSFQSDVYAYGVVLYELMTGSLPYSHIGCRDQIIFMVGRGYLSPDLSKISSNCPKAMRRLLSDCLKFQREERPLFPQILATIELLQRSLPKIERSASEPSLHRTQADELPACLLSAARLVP
B-Raf (V600E) (SEQ. ID NO: 4) kinase, sequence (P15056 416-766 V600E): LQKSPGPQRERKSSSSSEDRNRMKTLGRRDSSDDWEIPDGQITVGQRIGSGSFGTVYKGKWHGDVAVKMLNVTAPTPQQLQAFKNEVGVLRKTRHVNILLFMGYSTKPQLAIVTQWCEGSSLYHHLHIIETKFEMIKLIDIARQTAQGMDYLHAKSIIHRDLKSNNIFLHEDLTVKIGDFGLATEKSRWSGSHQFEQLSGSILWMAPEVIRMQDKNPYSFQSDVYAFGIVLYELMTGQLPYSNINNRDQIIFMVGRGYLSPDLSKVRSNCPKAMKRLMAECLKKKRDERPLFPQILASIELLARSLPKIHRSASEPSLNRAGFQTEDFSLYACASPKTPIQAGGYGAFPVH

In the case of `CCOc1ncc(-c2cc(NC(=O)c3ccnc(C(F)(F)F)c3)ccc2C)cc1-c1ccnc(NC(C)=O)c1` [Example 68], the pIC50 was at least 7.00 in the experiment with A375 cells; at least 7.00 in experiment [1] (assay version (1), read-out: BRAF VE (1) IC50); 5.00 to 6.00 in experiment [2] (assay version (1), read-out: ARAF (1) IC50); 6.30 to 7.00 in the experiment on H2405 cells.
As to `COC(=O)Nc1cc(-c2cc(-c3cc(NC(=O)c4ccnc(C(C)(C)F)c4)ccc3C)cc(OCCO)n2)ccn1` [Example 401], the pIC50 was at least 7.00 with A375 cells; at least 7.00 in experiment [1] (biochemical assay (1), read-out: BRAF VE (1)); 5.00 to 6.00 in experiment [2] (biochemical assay (1), read-out: ARAF (1)); 6.30 to 7.00 in the experiment with H2405 cells.
